Results published in paper PMC12198282, “Application of a high-density microelectrode array assay using a 3D human iPSC-derived brain microphysiological system model for in vitro neurotoxicity screening of environmental compounds” (Archives of Toxicology, 2025).
Like-named read-outs stand apart in the source and are kept apart here.

How the values were obtained:
[1] = test system: 2D rat cortical cultures; conditions: cited from earlier work
[2] = test system: human iPSC-derived 3D BrainSpheres; assay: BrainSphere MEA assay (HD-MEA, 13-day exposure, concentration-response); type: cell-based; conditions: for EC (benchmark response 1.349 SD): 312 h; for AC50: concentration at 50% maximal activity, Supplement 3 prints it also for curves with hit call 0; on hitc Mean.Spheroid.Burst.ISI: key: 1 (active); 0 (inactive); on hitc Mean.Spheroid.Burst.Peak.Firing.Rate: key: 1 (active); 0 (inactive); on hitc Mean.Spheroid.Firing.Rate: key: 1 (active); 0 (inactive); on hitc Mean.Spheroid.IBI: key: 1 (active); 0 (inactive); on hitc Mean.Spheroid.Nonburst.ISI: key: 1 (active); 0 (inactive); on hitc Mean.Spheroid.Spikes.per.Burst.per.Electrode: key: 1 (active); 0 (inactive); on hitc Mean.Spheroid.Spikes.per.Burst: key: 1 (active); 0 (inactive); on hitc Spheroid.Burst.Frequency: key: 1 (active); 0 (inactive); on hitc Spheroid.Spike.Amplitude.90th.Percentile: key: 1 (active); 0 (inactive)
Protocol: A volume of 1 ml of Tergazyme (1% solution in deionized water) was added to each well of the MaxTwo 6-Well Plate (MaxWell Biosystems) and incubated overnight under constant gyratory shaking (88 RPM) at 37 °C and 5% CO2. The next day, Tergazyme solution was removed, and plates were washed with distilled water and ethanol. After remaining ethanol was evaporated, wells were washed with PBS. Then, 200 µl of Poly-D-Lysine (Gibco, A38904 - 01) was added on top of the electrodes and incubated at 37 °C and 5% CO2 for 3 h (humidified). Poly-D-Lysine was then removed, and wells were coated with 100 µl of 0.1 mg/ml laminin coating solution (Sigma-Aldrich, L2020 - 1 mg) and incubated for 2 h at 37 ℃ and 5% CO2 (humidified). The laminin was removed after incubation. Using a 1 ml micropipette, 1 ml of medium containing BrainSpheres (7 weeks differentiated), approximately 25 BrainSpheres per ml, was plated on top of the HD-MEA chip (Fig. 1A). Afterwards, the plate was placed in an incubator at 37 °C and 5% CO2 and moved in circles to accumulate the BrainSpheres on top of the electrode area (Fig. 1A). The plate was kept in an incubator (humidified) for 2 days to allow attachment of the BrainSpheres with no gyratory shaking of the plates.
The MaxTwo high-density microelectrode array system (MaxWell Biosystems AG, Zurich, Switzerland) was used to measure neural activity with MaxTwo 6-well plates, where every well includes an integrated chip with 26,400 platinum electrodes arranged in an area of 3.85 × 2.10 mm^2 ([…]) (Muller et al. [2015]). The data were recorded and analyzed with the MaxLab Live Software (version 22.2.22). First, the MaxLab live ActivityScan Assay was used to identify the activity and positioning of the BrainSpheres on the array by scanning all the 26,400 electrodes in 29 configurations in a well (Assay Parameters: Configuration = Full; Recording time per configuration = 60 s (s)). The settings gain = 512, high-pass-filter (HPF): ~ 1 Hz and spike threshold = 5 X root-mean square (RMS) noise were used for all HD-MEA recordings. Circular regions of interest (ROI) were manually selected in the Activity Map where neuronal activity was apparent by an increased activity (Fig. 2). Over the course of the 13-day experiment, the same selected regions and electrodes were measured using the MaxLab Live Network Assay (600 s recording time).
A custom analysis framework was used to extract the MaxLab Live neuronal metrics for the individual BrainSpheres. For this, electrodes comprising a single ROI (i.e., individual BrainSphere; Fig. 2D) were grouped using distance-based clustering (fcluster method of Scipy library, Python 3.7) and neural metrics were calculated for the clustered electrodes for every ROI separately. Figure 2E presents a raster plot illustrating the activity associated with individual Regions of Interest (ROIs). […] Ten MaxLab Live neural metrics (endpoints) were evaluated from the MaxLab live ActivityScan and Network Assay in this study. See Table 3 for the endpoint definitions, tuned parameters, and activity type (general versus network connectivity).
The BrainSphere MEA assay measured changes in neural activity during a 13-day chemical exposure. The first recording day of the concentration–response screening protocol (day of exposure (DOE) 0) occurred after 7 weeks of BrainSphere differentiation, 48 h after plating on HD-MEA plates (Fig. 1B). The study included at least three biological replicates (one well per plate) from separate experiments (e.g., three different plates on three different days) and each well included multiple BrainSpheres which were considered technical replicates.

[3] = test system: 2D rat cortical cultures; conditions: cited from earlier work; remark: listed apart in the source
[4] = AUC over 13-day exposure, tcplfit2
[5] = tcplfit2 BMD at benchmark response (1.349*SD of baseline controls)
[6] = tcplfit2 output ACC, activity cutoff in Supplemental Table 1

## ClC1=C(Cl)[C@]2(Cl)[C@@H]3[C@@H]4C[C@@H]([C@H]5O[C@@H]45)[C@@H]3[C@@]1(Cl)C2(Cl)Cl [Dieldrin]
[1]
  hitc CCTE_Shafer_MEA_dev_LDH: 1
[1]; read-out: ac50 CCTE_Shafer_MEA_dev_LDH, rNFA mc5, cytotoxicity LDH
  AC50: 11.3 µM
[2]; 5th percentile of AC50 values by chemical, above 0.5 = more potent in the rNFA
  Difference of minimum potency between BrainSphere MEA assay and rNFA: more than 0.5 log10 µM
[2]; [4]
  hitc Mean.Spheroid.Burst.ISI: 1
  hitc Mean.Spheroid.Burst.Peak.Firing.Rate: 1
  hitc Mean.Spheroid.Firing.Rate: 1
  hitc Mean.Spheroid.IBI: 1
  hitc Mean.Spheroid.Nonburst.ISI: 0
  hitc Mean.Spheroid.Spikes.per.Burst: 1
  hitc Mean.Spheroid.Spikes.per.Burst.per.Electrode: 1
  hitc Spheroid.Burst.Frequency: 1
  hitc Spheroid.Spike.Amplitude.90th.Percentile: 1
[2]; Homo sapiens, 5th percentile across active AC50 values per chemical, read-out: Minimum potency
  EC50: 9.51 µM
[2]; Homo sapiens, tcplfit2 BMD at benchmark response (1.349*SD of baseline controls), read-out: BMD Mean.Spheroid.Burst.ISI
  EC (benchmark response 1.349 SD): 9.9 µM
[2]; Homo sapiens, tcplfit2 BMD at benchmark response (1.349*SD of baseline controls), read-out: BMD Mean.Spheroid.Nonburst.ISI
  EC (benchmark response 1.349 SD): 45 µM
[2]; Homo sapiens, read-out: ac50 Mean.Spheroid.Burst.Duration
  AC50: 13 µM
[2]; Homo sapiens, read-out: ac50 Mean.Spheroid.Burst.ISI
  AC50: 12 µM
[2]; Homo sapiens, read-out: ac50 Mean.Spheroid.Burst.Peak.Firing.Rate
  AC50: 11.7 µM
[2]; Homo sapiens, read-out: ac50 Mean.Spheroid.Firing.Rate
  AC50: 9.5 µM
[2]; Homo sapiens, read-out: ac50 Mean.Spheroid.IBI
  AC50: 28 µM
[2]; Homo sapiens, read-out: ac50 Mean.Spheroid.Nonburst.ISI
  AC50: 45 µM
[2]; Homo sapiens, read-out: ac50 Mean.Spheroid.Spikes.per.Burst
  AC50: 12.3 µM
[2]; Homo sapiens, read-out: ac50 Mean.Spheroid.Spikes.per.Burst.per.Electrode
  AC50: 11 µM
[2]; Homo sapiens, read-out: ac50 Spheroid.Burst.Frequency
  AC50: 9.6 µM
[2]; Homo sapiens, read-out: ac50 Spheroid.Spike.Amplitude.90th.Percentile
  AC50: 21 µM
[2]; Homo sapiens, mean across active AC50 values per chemical, read-out: Mean potency
  EC50: 14.3 µM
[2]; read-out: ac50 Mean.Spheroid.Burst.Duration
  AC50: 12.9 µM
[2]; read-out: ac50 Mean.Spheroid.Burst.ISI
  AC50: 12.2 µM
[2]; read-out: ac50 Mean.Spheroid.Firing.Rate
  AC50: 9.45 µM
[2]; read-out: ac50 Mean.Spheroid.IBI
  AC50: 28.2 µM
[2]; read-out: ac50 Mean.Spheroid.Spikes.per.Burst.per.Electrode
  AC50: 11.2 µM
[2]; read-out: ac50 Spheroid.Burst.Frequency
  AC50: 9.6 µM
[2]; read-out: ac50 Spheroid.Spike.Amplitude.90th.Percentile
  AC50: 20.8 µM
[2]; metrics active out of the total number of metrics screened
  Percent active: 90%
[2]; [5]
  BMD Mean.Spheroid.Burst.Peak.Firing.Rate: 9.9 µM
  BMD Mean.Spheroid.Firing.Rate: 9.3 µM
  BMD Mean.Spheroid.IBI: 27 µM
  BMD Mean.Spheroid.Spikes.per.Burst: 11 µM
  BMD Mean.Spheroid.Spikes.per.Burst.per.Electrode: 9.9 µM
  BMD Spheroid.Burst.Frequency: 9.8 µM
  BMD Spheroid.Spike.Amplitude.90th.Percentile: 17 µM
[2]; [6]
  ACC Mean.Spheroid.Burst.ISI: 8.4 µM
  ACC Mean.Spheroid.Burst.Peak.Firing.Rate: 9.6 µM
  ACC Mean.Spheroid.Firing.Rate: 11 µM
  ACC Mean.Spheroid.IBI: 28 µM
  ACC Mean.Spheroid.Nonburst.ISI: 52 µM
  ACC Mean.Spheroid.Spikes.per.Burst: 13 µM
  ACC Mean.Spheroid.Spikes.per.Burst.per.Electrode: 10 µM
  ACC Spheroid.Burst.Frequency: 9.2 µM
  ACC Spheroid.Spike.Amplitude.90th.Percentile: 20 µM
[2]; total number of active endpoints out of 10 MEA activity metrics, 13-day exposure
  Hits: 9
[3]
  hitc CCTE_Shafer_MEA_dev_AB: 1
[3]; read-out: ac50 CCTE_Shafer_MEA_dev_AB, rNFA mc5, cytotoxicity AlamarBlue
  AC50: 22.4 µM
[3]; ref Brown et al. [2016], Carstens et al. [2022], Frank et al. [2017b], Shafer et al. [2019], ToxCast invitrodb (v4.2)
  Cytotoxicity in the resazurin assay of the rNFA (in words): demonstrating cytotoxicity in the rNFA
